What was measured:
[1] = target: T1, HIV protease (Human immunodeficiency virus type 1 group M subtype B, UniProt P04585); assay: HIV protease enzyme assay (fluorescence, substrate 2-Ile-Nle-Phe(p-NO2)-Gln-ArgNH2); type: biochemical; conditions: 12.3 nanomolar enzyme, pH 6.4
T1 construct: HIV protease is diluted in the assay buffer to a final enzyme concentration of 12.3 nanomolar, based on a molecular weight of 10,780
Method: The compounds of the present invention are effective HIV protease inhibitors. Utilizing an enzyme assay as described below, the compounds set forth in the examples herein disclosed inhibited the HIV enzyme. […] The enzyme method is described below. The substrate is 2-Ile-Nle-Phe(p-NO2)-Gln-ArgNH2. The positive control is MVT-101 (Miller, M. et al, Science, 246, 1149 (1989)] The assay conditions are as follows:
20 mM sodium phosphate, pH 6.4
The above described substrate is dissolved in DMSO, then diluted 10 fold in assay buffer. Final substrate concentration in the assay is 80 μM. HIV protease is diluted in the assay buffer to a final enzyme concentration of 12.3 nanomolar, based on a molecular weight of 10,780.
The final concentration of DMSO is 14% and the final concentration of glycerol is 18%. The test compound is dissolved in DMSO and diluted in DMSO to 10× the test concentration; 10 μl of the enzyme preparation is added, the materials mixed and then the mixture is incubated at ambient temperature for 15 minutes. The enzyme reaction is initiated by the addition of 40 μl of substrate. The increase in fluorescence is monitored at 4 time points (0, 8, 16 and 24 minutes) at ambient temperature. Each assay is carried out in duplicate wells.

[2] = tested on: HIV-1; assay: CEM cell assay: HIV inhibition assay of acutely infected cells (tetrazolium based colorimetric, MTT); conditions: Human immunodeficiency virus 1, CCRF-CEM, 168 h; Table 21; CEM cells acutely infected with HIV-1, 7 days, MTT readout
Method: The effectiveness of various compounds were determined in the above-described enzyme assay and in a CEM cell assay. The HIV inhibition assay method of acutely infected cells is an automated tetrazolium based colorimetric assay essentially that reported by Pauwles et al, J. Virol. Methods, 20, 309-321 (1988). Assays were performed in 96-well tissue culture plates. CEM cells, a CD4+cell line, were grown in RPMI-1640 medium (Gibco) supplemented with a 10% fetal calf serum and were then treated with polybrene (2 μg/ml). An 80 μl volume of medium containing 1×10^4 cells was dispensed into each well of the tissue culture plate. To each well was added a 100 μl volume of test compound dissolved in tissue culture medium (or medium without test compound as a control) to achieve the desired final concentration and the cells were incubated at 37° C. for 1 hour. A frozen culture of HIV-1 was diluted in culture medium to a concentration of 5×10^4 TCID50 per ml (TCID50=the dose of virus that infects 50% of cells in tissue culture), and a 20 μL volume of the virus sample (containing 1000 TCID50 of virus) was added to wells containing test compound and to wells containing only medium (infected control cells). Several wells received culture medium without virus (uninfected control cells). Likewise, the intrinsic toxicity of the test compound was determined by adding medium without virus to several wells containing test compound. In summary, the tissue culture plates contained the following experiments:
In experiments 2 and 4 the final concentrations of test compounds were 1, 10, 100 and 500 μg/ml. Either azidothymidine (AZT) or dideoxyinosine (ddI) was included as a positive drug control. […] DMSO was added to all control wells at an appropriate concentration.
Following the addition of virus, cells were incubated at 37° C. in a humidified, 5% CO2 atmosphere for 7 days. Test compounds could be added on days 0, 2 and 5 if desired. On day 7, post-infection, the cells in each well were resuspended and a 100 μl sample of each cell suspension was removed for assay. A 20 μL volume of a 5 mg/ml solution of 3-(4,5-dimethylthiazol-2-yl)-2,5-diphenyltetrazolium bromide (MTT) was added to each […] cell suspension, and the cells were incubated for 4 hours at […] in a 5% CO2 environment. […] To each sample was added 100 μl of 10% sodium dodecylsulfate in 0.01 N HCl to lyse the cells, and samples were incubated overnight. The absorbance at 590 nm was determined for each sample using a Molecular Devices microplate reader. Absorbance values for each set of wells is compared to assess viral control infection, uninfected control cell response as well as test compound by cytotoxicity and antiviral efficacy.

SMILES	IC50 ([1]; Table 21, 80 μM substrate)	EC50 [2]	IC50 ([1]; Table 20, 80 μM substrate)
CC(C)CN(C[C@@H](O)[C@H](Cc1ccccc1)NC(=O)[C@@H](NC(=O)CN1CCCC1)C(C)(C)C)S(=O)(=O)c1ccc2c(c1)OCO2 [Entry 1]	3 nM	7 nM	–
CC(C)CN(C[C@@H](O)[C@H](Cc1ccccc1)NC(=O)[C@@H](NC(=O)CN1CCCC1)C(C)(C)C)S(=O)(=O)c1ccc2c(c1)CCO2 [Entry 11]	4 nM	21 nM	–
CC(C)CN(C[C@@H](O)[C@H](Cc1ccccc1)NC(=O)[C@H](CS(C)(=O)=O)NC(=O)CN1CCCC1)S(=O)(=O)c1ccc2c(c1)OCO2 [Entry 3]	8 nM	120 nM	–
C#CC[C@H](NC(=O)CN1CCCC1)C(=O)N[C@@H](Cc1ccccc1)[C@H](O)CN(CC(C)C)S(=O)(=O)c1ccc2c(c1)OCO2 [Entry 12]	2 nM	11 nM	–
CCC(C)[C@H](NC(=O)CN1CCCC1)C(=O)N[C@@H](Cc1ccccc1)[C@H](O)CN(CC(C)C)S(=O)(=O)c1ccccc1 (stereo partly shown) [Entry 1]	–	–	4 nM
COc1ccc(S(=O)(=O)N(CC(C)C)C[C@@H](O)[C@H](Cc2ccccc2)NC(=O)[C@@H](NC(=O)CN2CCCC2)C(C)C)cc1 [Entry 13]	3 nM	18 nM	–
CC(C)CN(C[C@@H](O)[C@H](Cc1ccccc1)NC(=O)[C@@H](NC(=O)CN1CCCC1)C(C)(C)C)S(=O)(=O)c1ccc2ncsc2c1 [Entry 8]	3 nM	16 nM	–
CCC(C)[C@H](NC(=O)CN1CCCC1)C(=O)N[C@@H](Cc1ccccc1)[C@H](O)CN(CC(C)C)S(=O)(=O)c1ccc2c(c1)CCO2 (stereo partly shown) [Entry 2]	–	–	2 nM
COC(=O)Nc1nc2cc(S(=O)(=O)N(CC(C)C)C[C@@H](O)[C@H](Cc3ccccc3)NC(=O)[C@@H](NC(=O)CN3CCCC3)C(C)(C)C)ccc2[nH]1 [Entry 7]	2 nM	29 nM	–
CCC(C)[C@H](NC(=O)CN1CCCC1)C(=O)N[C@@H](Cc1ccccc1)[C@H](O)CN(CC(C)C)S(=O)(=O)c1ccc2c(c1)OCO2 (stereo partly shown) [Entry 2]	3 nM	12 nM	–
CCC(C)[C@H](NC(=O)CN1CCCC1)C(=O)N[C@@H](Cc1ccccc1)[C@H](O)CN(CC(C)C)S(=O)(=O)c1ccc(OC)cc1 (stereo partly shown) [Entry 9]	3 nM	16 nM	–
CC(C)CN(C[C@@H](O)[C@H](Cc1ccccc1)NC(=O)[C@@H](NC(=O)CN1CCCC1)C(C)C)S(=O)(=O)c1ccc2c(c1)OCO2 [Entry 6]	3 nM	6 nM	–
CC(C)CN(C[C@@H](O)[C@H](Cc1ccccc1)NC(=O)[C@@H](NC(=O)CN1CCCC1)C(C)(C)C)S(=O)(=O)c1ccccc1 [Entry 4]	4 nM	12 nM	–
COc1ccc(S(=O)(=O)N(CC(C)C)C[C@@H](O)[C@H](Cc2ccccc2)NC(=O)[C@@H](NC(=O)CN2CCCC2)C(C)(C)C)cc1 [Entry 5]	3 nM	5 nM	–
CC(C)CN(C[C@@H](O)[C@H](Cc1ccccc1)NC(=O)[C@@H](NC(=O)CN1CCCC1)C(C)(C)S(C)(=O)=O)S(=O)(=O)c1ccc2c(c1)OCO2 [Entry 10]	4 nM	39 nM	–

Source: patent publication US6730669B2, “Amino acid hydroxyethylamino sulfonamide retroviral protease inhibitors” (G. D. Searle & Co., priority 1995, dated 2004)
